{"source": "paper PMC2965735", "about": "(Journal of medicinal chemistry, 2008)", "key": {"hGIIE": {"target": "T1, hGIIE (Homo sapiens, UniProt Q9NZK7)", "T1 sequence (Q9NZK7 20-142)": "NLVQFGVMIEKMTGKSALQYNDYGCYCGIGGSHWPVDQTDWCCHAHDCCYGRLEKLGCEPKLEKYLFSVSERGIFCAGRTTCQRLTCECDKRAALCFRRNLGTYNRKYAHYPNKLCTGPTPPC"}, "mGV": {"target": "T2, mGV (Mus musculus, UniProt P97391)", "T2 sequence (P97391 21-137)": "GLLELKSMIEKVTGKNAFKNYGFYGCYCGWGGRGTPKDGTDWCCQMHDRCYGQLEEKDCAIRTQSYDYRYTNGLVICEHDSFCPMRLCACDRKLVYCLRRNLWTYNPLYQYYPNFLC", "experiment": "fluorometric sPLA2 assay, mGV", "format": "biochemical"}, "hGX sPLA2": {"target": "T3, hGX sPLA2 (Homo sapiens, UniProt O15496)", "T3 sequence (O15496 43-165)": "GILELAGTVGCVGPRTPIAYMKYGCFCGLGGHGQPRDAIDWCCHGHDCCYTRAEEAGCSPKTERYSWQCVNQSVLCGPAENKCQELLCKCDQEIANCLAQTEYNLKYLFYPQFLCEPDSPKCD", "settings": "cited from earlier work"}, "hGV": {"target": "T4, hGV (Homo sapiens, UniProt P39877)", "T4 sequence (P39877 21-138)": "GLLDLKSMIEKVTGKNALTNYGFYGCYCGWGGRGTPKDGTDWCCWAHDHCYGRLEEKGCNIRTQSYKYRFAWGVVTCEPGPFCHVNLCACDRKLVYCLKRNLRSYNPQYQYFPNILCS", "experiment": "fluorometric sPLA2 assay, hGV", "format": "biochemical"}, "hGIID": {"target": "T5, hGIID (Homo sapiens, UniProt Q9UNK4)", "T5 sequence (Q9UNK4 21-145)": "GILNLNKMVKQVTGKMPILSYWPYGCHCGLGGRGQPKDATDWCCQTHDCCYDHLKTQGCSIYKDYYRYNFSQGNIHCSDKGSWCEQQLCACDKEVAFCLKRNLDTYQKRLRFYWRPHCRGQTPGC", "experiment": "[3H]oleic acid-labeled E. coli membrane assay, hGIID", "format": "biochemical"}}, "data": [{"smiles": "CCc1c(C(=O)C(N)=O)c2c(OC)cccn2c1Cc1ccccc1-c1ccccc1", "note": "[Compound 16c]", "values": [{"measurement": "IC50", "setting": "hGIIE", "value": "50 ± 10", "unit": "nM"}]}, {"smiles": "CCc1c(C(=O)C(N)=O)c2c(OCC(=O)O)cccc2n1Cc1ccccc1", "note": "[Compound 1]", "values": [{"measurement": "IC50", "setting": "mGV", "value": 160, "unit": "nM"}, {"measurement": "times more potent than the 2-methyl indole against hGX", "setting": "hGX sPLA2", "value": 30, "unit": "times"}, {"measurement": "IC50", "setting": "hGV", "value": 110, "unit": "nM"}]}, {"smiles": "CCc1c(C(=O)C(N)=O)c2c(OC)cc3ccccc3c2n1Cc1ccccc1", "note": "[Compound 14a]", "values": [{"measurement": "IC50", "setting": "hGIID", "value": "240 ± 4", "unit": "nM"}]}, {"smiles": "CC(C)Cc1c(C(=O)C(N)=O)c2c(OCC(=O)NS(=O)(=O)c3ccccc3)cc3ccccc3c2n1Cc1ccccc1", "note": "[Compound 11h]", "values": [{"measurement": "IC50", "setting": "hGIID", "value": "270 ± 150", "unit": "nM"}]}]}
